One assay deals with Tlp3^LBD D170A (Campylobacter jejuni, UniProt Q0P864). As to the kind of experiment: biochemical.
Assay [1] has as its target T1, Tlp2 (Campylobacter jejuni, UniProt Q0PBZ3). As to the kind of experiment: biochemical. Type of assay: binding. In short, it runs like this: (§1)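 Recombinant His-tagged periplasmic sensory domains (Tlp2 aa 33–286, Tlp4 aa 38–297) from E. coli BL21(DE3) were amine-coupled to a CM5 chip. Ligands (0.2–0.0125 mM in PBS pH 7.2) were run in single-cycle kinetics at 25 °C with 10-min dissociation. KD was derived at a report point 4 s after injection stop.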

The target of assay [2] is T2, Tlp4 (Campylobacter jejuni, UniProt Q0PBP3). As to the kind of experiment: biochemical. Format: binding. A digest of the protocol: as §1
T2 sequence (Q0PBP3 entry or part of it): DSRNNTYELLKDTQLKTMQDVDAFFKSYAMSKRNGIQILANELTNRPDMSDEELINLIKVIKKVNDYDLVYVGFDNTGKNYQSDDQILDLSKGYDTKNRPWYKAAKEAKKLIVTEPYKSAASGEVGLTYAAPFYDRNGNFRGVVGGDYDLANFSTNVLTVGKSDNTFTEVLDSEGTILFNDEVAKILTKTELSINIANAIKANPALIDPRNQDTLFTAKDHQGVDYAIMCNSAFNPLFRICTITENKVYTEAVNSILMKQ
Another assay concerns the target Tlp3^LBD D196A (Campylobacter jejuni, UniProt Q0P864, D196A). As to the kind of experiment: biochemical.
Assay [3] has as its target T1, Tlp2. Type of assay: binding. The conditions noted are these: yes/no binding. In short, it runs like this:
(§2)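 His-tagged periplasmic domains, 1 µg, precomplexed with anti-His plus Alexa555 secondary/tertiary antibodies, incubated on glycan and amino acid/salt arrays in PBS. Binding scored yes/no against background + 3× SD threshold, from replicate spots over three experiments.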

The target in assay [4] is T2, Tlp4. Type of assay: binding. The conditions noted are these: yes/no binding. A digest of the protocol:
as §2

The target in another assay is Tlp3^LBD K149A (Campylobacter jejuni, UniProt Q0P864, K149A). As to the kind of experiment: biochemical.
Sequence of Tlp3^LBD K149A (Q0P864 41-290 K149A): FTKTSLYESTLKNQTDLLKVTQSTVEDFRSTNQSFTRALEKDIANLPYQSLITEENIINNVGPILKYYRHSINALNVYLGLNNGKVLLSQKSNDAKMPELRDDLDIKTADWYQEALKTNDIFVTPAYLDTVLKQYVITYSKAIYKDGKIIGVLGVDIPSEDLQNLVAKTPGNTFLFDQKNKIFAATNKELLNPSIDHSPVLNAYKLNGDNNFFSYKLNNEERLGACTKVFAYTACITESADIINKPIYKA
In a further assay the target is Tlp3 (Campylobacter jejuni, UniProt Q0P864). As to the kind of experiment: Glycan/small molecule arrays with Tlp3. The conditions noted are these: yes/no binding. A digest of the protocol: as §2
Sequence of Tlp3 (Q0P864 entry or part of it): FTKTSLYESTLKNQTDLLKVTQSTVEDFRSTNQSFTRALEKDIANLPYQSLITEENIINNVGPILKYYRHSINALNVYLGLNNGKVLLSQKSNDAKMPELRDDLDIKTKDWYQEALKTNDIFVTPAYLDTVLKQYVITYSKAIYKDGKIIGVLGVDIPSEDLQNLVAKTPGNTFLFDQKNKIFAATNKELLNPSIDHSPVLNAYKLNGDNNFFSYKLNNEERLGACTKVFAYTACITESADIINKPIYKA
Another assay concerns the target Tlp3^LBD D169A (Campylobacter jejuni, UniProt Q0P864, D169A). As to the kind of experiment: biochemical.
In a further assay the target is Tlp3^LBD W151A (Campylobacter jejuni, UniProt Q0P864, W151A). As to the kind of experiment: biochemical.
Sequence of Tlp3^LBD W151A (Q0P864 41-290 W151A): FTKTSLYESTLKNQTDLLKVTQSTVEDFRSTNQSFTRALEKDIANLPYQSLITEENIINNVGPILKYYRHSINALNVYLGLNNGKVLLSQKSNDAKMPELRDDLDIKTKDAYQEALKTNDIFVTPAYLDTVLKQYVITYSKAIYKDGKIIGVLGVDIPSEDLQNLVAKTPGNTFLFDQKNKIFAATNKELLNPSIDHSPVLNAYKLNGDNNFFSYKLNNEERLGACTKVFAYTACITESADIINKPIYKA
Setting [5] is: SPR KD, mean ± SD, NB = no binding, read-out: Tlp2 Affinity.
The mark [6] stands for this setting: SPR KD, mean ± SD, NB = no binding, read-out: Tlp4 Affinity.

The values that follow come from PMC9769880, “Diverse Sensory Repertoire of Paralogous Chemoreceptors Tlp2, Tlp3, and Tlp4 in Campylobacter jejuni” (Microbiology Spectrum, 2022).

Where two headings read alike, the source gives them in different places.

Sequence of Tlp3^LBD D170A (Q0P864 41-290 T170A): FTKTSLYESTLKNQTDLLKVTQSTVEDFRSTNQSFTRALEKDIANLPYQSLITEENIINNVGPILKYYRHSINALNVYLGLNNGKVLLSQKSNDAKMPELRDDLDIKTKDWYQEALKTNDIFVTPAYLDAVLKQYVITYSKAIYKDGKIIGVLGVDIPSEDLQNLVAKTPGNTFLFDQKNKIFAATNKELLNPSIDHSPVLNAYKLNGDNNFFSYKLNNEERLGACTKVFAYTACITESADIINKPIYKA
T1 sequence (Q0PBZ3 entry or part of it): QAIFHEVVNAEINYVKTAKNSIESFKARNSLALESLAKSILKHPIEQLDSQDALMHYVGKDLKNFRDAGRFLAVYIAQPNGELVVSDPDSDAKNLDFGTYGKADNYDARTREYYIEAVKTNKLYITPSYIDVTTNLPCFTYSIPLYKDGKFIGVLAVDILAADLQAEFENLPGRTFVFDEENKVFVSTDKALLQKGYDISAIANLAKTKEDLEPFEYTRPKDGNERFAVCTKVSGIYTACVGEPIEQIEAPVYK
Sequence of Tlp3^LBD D196A (Q0P864 41-290 D196A): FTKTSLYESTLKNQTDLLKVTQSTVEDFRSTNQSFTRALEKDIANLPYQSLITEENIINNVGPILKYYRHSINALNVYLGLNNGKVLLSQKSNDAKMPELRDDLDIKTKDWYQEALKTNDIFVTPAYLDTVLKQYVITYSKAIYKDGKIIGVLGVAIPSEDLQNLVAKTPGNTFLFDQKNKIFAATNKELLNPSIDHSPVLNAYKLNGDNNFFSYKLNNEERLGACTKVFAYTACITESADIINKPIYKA
Sequence of Tlp3^LBD D169A (Q0P864 41-290 D169A): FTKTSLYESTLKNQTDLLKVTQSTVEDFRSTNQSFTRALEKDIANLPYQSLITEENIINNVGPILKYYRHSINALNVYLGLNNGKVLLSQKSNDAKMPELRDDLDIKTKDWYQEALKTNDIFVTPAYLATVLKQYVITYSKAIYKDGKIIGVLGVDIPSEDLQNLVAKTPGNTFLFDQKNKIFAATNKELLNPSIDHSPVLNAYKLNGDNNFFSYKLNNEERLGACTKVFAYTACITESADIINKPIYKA

For `C[C@H](O)[C@@H](O)[C@@H](O)[C@H](O)C=O` [Fucose], the Kd came to 46.6 ± 16.1 µM on Tlp3^LBD D170A; 15.5 ± 0.9 µM on Tlp2 [1] (setting [5]); 16.2 ± 2.2 µM at Tlp4 [2] (setting [6]); 41.9 ± 13.2 µM on Tlp3^LBD D196A; 63.7 ± 16.8 µM on Tlp3^LBD K149A; 50 ± 17.6 µM at Tlp3^LBD D169A. In addition, the Kd at Tlp3^LBD W151A turned out to be 66.9 ± 14.6 µM. On Tlp2 [3], the “binding to Tlp2 on glycan/small molecule array” value is “interacted”. Moreover, the “binding to Tlp4 on glycan/small molecule array” value on Tlp4 [4] is “interacted”. Besides, on Tlp3, the “binding to Tlp3 on glycan/small molecule array” value was “interacted”.
Turning to `NCCCC[C@H](N)C(=O)O` [Lysine], the Kd stood at 14.5 ± 4.8 µM on Tlp3^LBD D170A; 18.6 ± 1.5 µM at Tlp2 [1]; 19.7 ± 3.9 µM at Tlp4 [2]; 16.1 ± 9.1 µM at Tlp3^LBD D196A; 32.3 ± 5.3 µM on Tlp3^LBD K149A; 29.2 ± 4.9 µM at Tlp3^LBD D169A. This compound registered a Kd on Tlp3^LBD W151A of 27.3 ± 5.9 µM. The “binding to Tlp2 on glycan/small molecule array” value at Tlp2 [3] is reported as “bound”. For the same compound, the “binding to Tlp4 on glycan/small molecule array” value on Tlp4 [4] was “bound”. Also, the “binding to Tlp3 on glycan/small molecule array” value at Tlp3 is listed as “bind specifically”.
Take `CC(=O)N[C@H]1[C@H]([C@H](O)[C@H](O)CO)OC(O)(C(=O)O)C[C@@H]1O` (stereo partly drawn) [Sialic acid]: the Kd at Tlp3^LBD D170A amounted to 16.6 ± 2 µM; on Tlp2 [1] (setting [5]), 1.7 ± 0.2 µM; at Tlp4 [2] (setting [6]) it was 0.8 ± 0.1 µM; on Tlp3^LBD D196A, 36.8 ± 3 µM; on Tlp3^LBD K149A, 24 ± 6.6 µM; at Tlp3^LBD D169A it was 25.2 ± 8.5 µM. This compound yielded a Kd on Tlp3^LBD W151A of 17.3 ± 4.4 µM. The “binding to Tlp2 on glycan/small molecule array” value at Tlp2 [3] is “interacted”. The “binding to Tlp4 on glycan/small molecule array” value at Tlp4 [4] is on record as “interacted”. The “binding to Tlp3 on glycan/small molecule array” value at Tlp3 is given as “interacted”.
